Measured values as given in US20100093861A1, “TREATMENT OF INSULIN RESISTANCE OR DISEASES ASSOCIATED WITH INSULIN RESISTANCE” (Stevia ApS, priority 2006, published 2010).

Tests used:
[1] = test system: diabetic KKAy-mice; assay: In vivo study of plasma concentrations of insulin, glucose and triglycerides in KKAy-mice after isosteviol or soybean protein (Example 1); conditions: oral in diet
Description: The following experiment was performed to investigate the effect of isosteviol (ISV) and soybean protein on plasma concentrations of insulin, glucose and triglycerides. Four experimental groups, each consisting of 10 KKAy-mice (obtained from Clea Japan, Tokyo, Japan) and one control group of 20 C57 mice (obtained from Taconic, Ry, Denmark), all 5 weeks old, were feed the following three test diets in a period of nine weeks. • A: standard chow diet (SCD)(ALTROMIN 1320, Brogaarden, Hørsholm). Diet A was fed to one experimental group and to the control group. • B: standard chow diet (SCD) (ALTROMIN 1320, Brogaarden, Hørsholm)+0.02 g/kg BW of ISV (Waco Chemicals, Osaka, Japan). • C: diet containing 50 weight-% standard chow+50 weight-% Soybean Protein (SBP) (NutriPharma, Oslo)
Hormones and lipids were measured from blood sample at start and end of the treatment period. Fasting blood glucose as well as body weight were measured once a week. […] The blood was taken from the tail of the animals.
Isosteviol (ISV) and Soybean Protein (SBP) were given orally. The SBP were incorporated in the food pellet and the ISV was dissolved in absolute ethanol, the solution was inoculated on the pellets and the ethanol was allowed to evaporate, leaving the ISV on the food pellet. All diets were adjusted for vitamins and minerals, so that all diets content the same amount. Beside that, water was given ad libitum and a light cycle of 12 hours/12 hours was used. The experiment was performed in accordance with the guidelines of the Danish Council on Animal Care.

[2] = test system: GLUT2; assay: Affymetrix gene chip analysis of KKAy islets: GLUT2; assay type: in vivo, mice; conditions: ISV vs. KKAy control islets, 9 weeks
Description: (§1) cRNA preparation and in vitro transcription: In total 6 Affymetrix arrays MOE430 2.0 probe array cartridge were used i.e. for analysis of 3 replicas for the KKAy control group and the ISV group, respectively. Each of the 6 samples consisted of pooled RNA from 3-4 KKAy mice. Preparation of target for hybridization was prepared from 340 ng of total RNA using MessageAmp™ II aRNA Amplification Kits (Ambion), according to the manufacturers instructions. Arrays were hybridised and scanned as described elsewhere (Kruhoffer et al., 2005).

[3] = test system: 11-beta-HSD-1; assay: Affymetrix gene chip analysis of KKAy islets: 11-beta-HSD-1; assay type: in vivo, mice; conditions: ISV vs. KKAy control islets, 9 weeks
Description: as §1

[4] = test system: total insulin protein content of KKAy islets; assay: Insulin content of isolated islets from KKAy mice (RIA); assay type: in vivo; conditions: KKAy mice after 9 weeks treatment
Description: The Insulin content of isolated islet from the KKAy mice was measured using RIA as described for the Insulin assay. Total islet protein was purified from the organic phase during from the RNA Trizol preparation according to the manufactures instruction (Gibco BRL, Life Technologies, Roskilde, DK).
In order to clarify if this increased levels of Ins1 mRNA are translated, the total insulin content from the very limited protein fraction collected from the organic phase during RNA preparation from isolated islets from the KKAY and ISV group was measured using RIA (FIG. 17). The insulin content from the ISV group compared to the KKAy control was 2.4 fold (p=0.003) higher, supporting the gene expression analysis.

[5] = test system: GLUT2; assay: Relative real time RT-PCR in islets of KKAy mice (Example 3): GLUT2; assay type: in vivo; conditions: 9 weeks
Description: Islets were isolated by the collagenase digestion technique. In brief, the animals were anesthetized with pentobarbital (50 mg/kg intraperitoneally) and midline laparotomy was performed. The pancreas was retrogradely filled with 3 mL ice-cold Hanks balanced salt solution (([HBSS] Sigma Chemical, St Louis, Mo.) supplemented with 0.3 mg/ml collagenase Boehringer Mannheim GmbH, Germany). The pancreas was subsequently removed and incubated for 19 minutes at 37° C. After rinsing in HBSS, the islets were handpicked under a stereomicroscope and immediately transferred to a tubes containing 1 ml Trizol (Gibco/Invitrogene, Calsbad, Calif., USA). The islets isolated from the NMRI mice were incubated overnight at 37° C. and 95% normal atmosphere/5% CO2 in 10 ml RPMI 1640 containing 11.1 mmol/L glucose supplemented with penicillin G and 100 μg/mL streptomycin (all Gibco/Invitrogene, Calsbad, Calif., USA).
For each group, islets from 3-4 mice (180-200 islets) were pooled in 1 ml Trizol reagent (Gibco/lnvitrogene, Calsbad, Calif., USA) before RNA purification. Total RNA was extracted according to the manufactures' instructions. RNA was quantified by measuring absorbance at 260 and 280 nm. The quality of the RNA was checked by the Agilent 2100 bioanalyzer (Agilent, Santa Clara, USA). […]

[6] = test system: IR; assay: Affymetrix gene chip analysis of KKAy islets: IR; assay type: in vivo, mice; conditions: ISV vs. KKAy control islets, 9 weeks
Description: as §1

[7] = after 9 weeks of treatment, compared to standard chow diet, ISV 0.02 g/kg BW, SBP 50 weight-% of diet

C[C@@]12CC[C@@H]3[C@@](CC[C@H]4[C@@]3(C)CCC[C@@]4(C)C(=O)O)(CC1=O)C2 (single isomer, unassigned; ent-16) [ISV, ent-16-ketobeyeran-19-oic acid]
reduction of plasma glucose concentration, SCD vs. treatment [1, 7]: 73% | reduction of plasma insulin concentration, SCD vs. treatment [1, 7]: 192% | plasma triglyceride concentration, SCD vs. treatment ([1]; nine weeks treatment): 101% | array: change of GLUT2 expression [2]: upregulation | array: change of 11-beta-HSD-1 expression [3]: down regulation | insulin content of islets compared to the KKAy control, higher [4]: 2.4 fold | up regulation of the GLUT2 gene transcript ([5]; RT-PCR): more than 3 fold | increased expression of GLUT2, ISV group vs. control group ([5]; normalized to 18S rRNA): 201% | array: change of IR expression [6]: no changes
